Laboratory results from patent publication US11104593B2, “Compositions exhibiting synergy in biofilm control” (SOLENIS TECHNOLOGIES, L.P., priority 2017, dated 2021).

System: Pseudomonas putida biofilms
Assay: Biofilm eradication (MBEC) test: viable plate counts of biofilms on stainless steel 316 coupons from a CDC Biofilm reactor after two hours of treatment
Assay type: cell-based
Conditions: 20 mg/L MCA alone, viable biofilm population vs untreated control, 2 h, 28° C.
Protocol: In this work the efficacy of the agents alone and in combination were determined by measuring the number of viable cells in model biofilms remaining after treatment. The Minimum Biofilm Eradication value (MBEC) is defined as a 95% reduction in the number of viable cells compared to the untreated control.
Dose response studies were performed to determine the Minimum Biofilm Eradication Concentration (MBEC) for monochloramine and PEI alone. The MBEC is defined as the concentration of agent that reduces the viable biofilm population by 95% of the untreated control value as measured by viable plate counts. Experiments were then performed to determine the result of combining the two agents, oxidizing biocide monochloramine and dispersant PEI alone, on biofilm populations. The experiments examined three concentrations of monochloramine with four concentrations of PEI alone.
M9YG media is a simple minimal salt medium supplemented with 500 mg/L glucose and 0.01% yeast extract. The salts composition was intended to mimic a typical cooling tower water composition. […]
Briefly, biofilms were grown on stainless steel 316 coupons in a CDC Biofilm reactor using M9YG minimal salts growth media for a period of twenty-four hours. […] Viable cells released into the fluid were then determined by a plating method.

SMILES: NCl [MCA, monochloramine]
- % reduction: 93.58%
- % reduction (listed as monochloramine): greater than 90%
